The values that follow are results of earlier work, collected in patent US9277761B2, “Nutrition trace element composition” (priority 2003, dated 2016).

For data set [1] the following is noted: cited from earlier work.
The test system of data set [2] is humans. The conditions noted are these: 12 g/d for 2 days, child; cited from earlier work.
The test system of data set [3] is humans. The conditions noted are these: two children, 10-15 ml weapon-cleaning agent with approx. 1.8% selenous acid, roughly 110 mg selenium; cited from earlier work.

As to `O=[75Se]([O-])[O-].[Na+].[Na+]` [[^75Se] sodium selenite], the Dose excreted in data set [1] (intravenous, first 24 hours) is reported as 12%. Also, in data set [1] (intravenous), the “Additional portion of dose eliminated in second phase” value is given as 40%, the “Biological half-life of second phase” value is given as 20 days and the “Half-life of the third phase” value is 115 days. Moreover, the “Absorbed dose excreted through the urine” value in data set [1] (oral 10 μg, first two weeks) is listed as 14-20%. In data set [1] (oral 10 μg), the “Half-life of total body retention, 1st phase” value was 0.7 to 1.2 days; the “Half-life of total body retention, 2nd phase” value is 7 to 11 days; the “Half-life of total body retention, 3rd phase” value is 96 to 144 days.
Regarding `[Zn]` [elementary zinc], in the data set with humans [2], the Symptoms after ingestion result is “recklessness, lethargy and dysgraphia”.
For `O=[Se](O)O` [selenous acid], the “Outcome of acute selenium poisoning” value in the data set on humans [3] is given as “died”.
